Results as given in ChEMBL document CHEMBL1155189, “Bioactivity-guided isolation of cytotoxic constituents from stem-bark of Premna tomentosa” (Bioorg Med Chem Lett, 2009).
Values after ≈ are worked out from the molar mass of the structure shown.

Legend:
Format in all cases: functional, cell-based
HT-29 = test: Cytotoxicity against human HT-29 cells after 48 hrs by MTT assay
MCF7 = test: Cytotoxicity against human MCF7 cells after 48 hrs by MTT assay; conditions: MCF7, 48 h
HepG2 = test: Cytotoxicity against human HepG2 cells after 48 hrs by MTT assay
A549 = test: Cytotoxicity against human A549 cells after 48 hrs by MTT assay; conditions: A549, 48 h
A-431 = test: Cytotoxicity against human A431 cells after 48 hrs by MTT assay
[1] = Homo sapiens, HT-29, 48 h, read-out: IC50
[2] = Homo sapiens, HepG2, 48 h, read-out: IC50

Compound: CC(CO)c1cc(O)c2c(c1)[C@@H](O)C[C@H]1C(C)(C)CCC[C@]1(O)C2 (stereo not given in full)
- IC50 (HT-29; [1]): 14.6 µg/mL (≈ 43.6 µM)
- IC50 (MCF7): 15.8 µg/mL (≈ 47.4 µM)
- IC50 (HepG2; [2]): 34.4 µg/mL (≈ 103 µM)
- IC50 (A549): 21.4 µg/mL (≈ 63.9 µM)
- IC50 (A-431): Not Active

Compound: CC(CO)c1cc(O)c2c(c1)CC[C@H]1C(C)(C)CCC[C@]1(O)C2 (stereo not given in full)
- IC50 (HT-29; ht-29): Not Active
- IC50 (MCF7): 80.8 µg/mL (≈ 254 µM)
- IC50 (HepG2; hepg2): Not Active
- IC50 (A549): 43.6 µg/mL (≈ 137 µM)
- IC50 (A-431): Not Active

Compound: CC(CO)c1cc2c(c(O)c1O)C[C@@]1(O)CCCC(C)(C)[C@@H]1CC2 (stereo not given in full)
- IC50 (HT-29; [1]): 16.2 µg/mL (≈ 48.5 µM)
- IC50 (MCF7): 16 µg/mL (≈ 47.7 µM)
- IC50 (HepG2; [2]): 18.6 µg/mL (≈ 55.7 µM)
- IC50 (A549): 18.6 µg/mL (≈ 55.7 µM)
- IC50 (A-431): Not Active
